# Laboratory results reported in patent US7645882B2, “Inhibitor of protein modification products formation” (priority 2003, dated 2010).
# Tests used:
# [1] = Solubility test at different pH; assay type: physicochemical; settings: for condition of the solution: 10 mg per 1 ml purified water
# Procedure: TM-2002 was added in purified water to be 10 mg per 1 ml and added hydrochloride to adjust to pH 2.0 and solved. Then, this solution was adjusted to pH 7.0, 8.0 and 2,0 (unadjust) by 1N sodium hydrate to prepare 3 solutions. These solutions were put on warming, dark cold place and after 24 hours, conditions of the solutions were observed. […] As the result, stable TM-2002 injectable formulation in its solubility may be prepared by keeping acidic condition using inorganic acid such as hydrochloride, sulfuric acid, or various organic acid, or by using TM-2002 hydrochloride or sulfate as material which is made from said acids.
# [2] = test system: ischemia-reperfusion renal failure model rat; assay: Renal protective effect on ischemia-reperfusion renal failure model rat; assay type: in vivo; settings: 50 mg/kg twice daily by sonde, 2 days
# Procedure: This condition model is typical acute renal failure model. To prepare the model, operated on wistar rats (male, body weight 150 g, 6 weeks aged) to remove right kidney, and on the following day, renal artery of remaining left kidney was apply a ligature with clip under general anesthesia. […] After preparing the ischemia-reperfusion model, test compound (TM-2002, 50 mg/kg body weight, twice a daily) was suspended in 0.5% carboxymethylcellulose. The suspension was coercively administered 2 days continuously using sonde, on third day kidney was obtained, and analysed pathologically (renal tubular stromal disorder score). In particular, the kidney was stained by PAS according to conventional method and the renal tubular stromal disorder was estimated for the presence or absence of renal tubular necrosis, renal tubular hypertrophy, renal tubular atrophia, renal tubular basal lamina thickening and cast in the sustained image of kidney. As well as biochemical analysis of blood was carried out (contract clinical analysis organization: SRL).
# [3] = test system: Thy-1 nephritis model rat; assay: Renal protective effect on Thy-1 nephritis model rat; assay type: in vivo; settings: 50 mg/kg twice daily by sonde, 5 days
# Procedure: 1.2 mg/kg of OX-7, anti Thy-1 antibody, was administered to wistar rat (male, body weight 150 g, 6 weeks aged) in caudal vein to prepare typical glomerulonephritis model with mesangial nephritis. After the administration of anti Thy-1 antibody, test compound (TM-2002, 50 mg/kg body weight, twice a daily) was suspended in 0.5% carboxymethylcellulose, was coercively administered 5 days continuously using sonde, on sixth day sampled, kidney was obtained, and analysed pathologically (count the number of glomerular cells). In particular, cells were stained by PAS according to conventional method, the stained image was captured by 3CCD camera (Olympus), and then analyzed using softwares, Image Graver PCI (FUJI shashin film) and Mac Aspect (Mitani kabushiki kaisha). Also, biochemical analysis of blood and urine was carried out (contract clinical analysis organization: SRL).
# [4] = test system: SHR/NDmcr-cp rat; assay: Renal protecting effect in SHR/NDmcr-cp rat; assay type: in vivo; settings: 33 weeks aged, 20 weeks administration; TM-2002 50 mg/kg in diet, olmesartane 3 mg/kg oral
# Description: Renal protecting effect was observed using SHR/NDmcr-cp (Disease Model Cooperative Research Association) rat, which had been known their high blood pressure, hyperglycemia, hyperlipemia, obesity and hyperinsulinemia and renal function disorder while aging.
# SHR/NDmcr-cp rat and Wistar Kyoto rat (Disease Model Cooperative Research Association) of 9 weeks aged were conformed for 3 weeks and measured their body weight and blood collection before administration. One group contain five rats (body weight 440 g±32 g). After division, excipient (negative control), positive control compound and test compound were administered 20 weeks. Carboxymethylcellulose (carboxymethyl cellulose Na/ Wako) solution as excipient and olmesartane, which is one of the angiotensin II receptor antagonist and has renal protective effect, as positive control compound were used to examine the effect of TM-2002 (test compound). The dosage of olmesartane was 3 mg per 1 kg of body weight and that of TM-2002 was 50 mg per 1 kg of body weight. Olmesartane was prepared by suspending or solving the designed amount in 1.0 ml of 0.5% carboxymethylcellulose solution or purified water, and TM-2002 was prepared by mixing the designed amount in 30 g of diet (for one day). Since the increase of body weight of test animals was remarkable, the amount of positive control compound and test compound was modified depending on the result of body weight measuring (every week). […] While administration period, body weight was measured every week, and blood collection, urine collection and blood pressure measuring were done every 2 weeks before 4 weeks aged and every 4 weeks after 5 weeks aged. Blood collection was carried out after warming to 38° C. by warming plate from caudal vein for 800 μl (heparin treatment: the amount of heparin was determined by ratio 15 μl to 1 ml of blood). […] The volume of daily urine was measured when urine was collected. The blood pressure was determined with by the tail-cuff method blood pressure measure (Softron). […]
compound,measurement,setting,value
"Cc1ncc2c(c1O)C(c1c(C)nn(-c3ccccc3)c1O)OC2 (stereo not shown) [compound 68, 1-(5-hydroxy-3-methyl-1-phenyl-1H-pyrazol-4-yl)-6-methyl-1,3-dihydro-furo[3,4-c]pyridin-7-ol]",condition of the solution,"[1]; pH 2.0, after 24 hours",kept clear solution
same,condition of the solution,"[1]; pH 7.0, after 24 hours",observed precipitate
same,condition of the solution,"[1]; pH 8.0, after 24 hours",observed precipitate
same,change of color of the solution,"[1]; pH 7.0 and pH 8.0 solutions, after 24 hours",the change of color was shown
same,BUN value,[2]; kidney on third day,improved
same,urinary protein,[2]; kidney on third day,improved
same,number of glomerular cells,[2]; p<0.0001,significantly suppressed
same,BUN value,[3]; sampled on sixth day,improved
same,urinary protein,[3]; sampled on sixth day,improved
same,number of glomerular cells,[3]; p<0.0001,significantly suppressed
same,blood pressure,[4],without blood pressure lowering
same,renal function / renal protective effect,[4],excellent renal protective effect
same,urinary protein,[4],urinary protein is suppressed remarkably
